Reference: ChEMBL document CHEMBL5528002, “Identification of selective 5-LOX and FLAP inhibitors as novel anti-inflammatory agents by ligand-based virtual screening” (Eur J Med Chem, 2024)

Tests used:
[1] = molecular target: T1, Polyunsaturated fatty acid 5-lipoxygenase (Homo sapiens) (UniProt P09917); assay: Inhibition of human recombinant 5-LOX expressed in Escherichia coli BL21(DE3) assessed as enzyme remaining activity at 10 uM using arachidonic acid as substrate preincubated with compound for 15 mins followed by substrate and CaCl2 addition measured after 10 mins by RP-HPLC analysis relative to control; details: time 25.0 min
T1 sequence (whole entry): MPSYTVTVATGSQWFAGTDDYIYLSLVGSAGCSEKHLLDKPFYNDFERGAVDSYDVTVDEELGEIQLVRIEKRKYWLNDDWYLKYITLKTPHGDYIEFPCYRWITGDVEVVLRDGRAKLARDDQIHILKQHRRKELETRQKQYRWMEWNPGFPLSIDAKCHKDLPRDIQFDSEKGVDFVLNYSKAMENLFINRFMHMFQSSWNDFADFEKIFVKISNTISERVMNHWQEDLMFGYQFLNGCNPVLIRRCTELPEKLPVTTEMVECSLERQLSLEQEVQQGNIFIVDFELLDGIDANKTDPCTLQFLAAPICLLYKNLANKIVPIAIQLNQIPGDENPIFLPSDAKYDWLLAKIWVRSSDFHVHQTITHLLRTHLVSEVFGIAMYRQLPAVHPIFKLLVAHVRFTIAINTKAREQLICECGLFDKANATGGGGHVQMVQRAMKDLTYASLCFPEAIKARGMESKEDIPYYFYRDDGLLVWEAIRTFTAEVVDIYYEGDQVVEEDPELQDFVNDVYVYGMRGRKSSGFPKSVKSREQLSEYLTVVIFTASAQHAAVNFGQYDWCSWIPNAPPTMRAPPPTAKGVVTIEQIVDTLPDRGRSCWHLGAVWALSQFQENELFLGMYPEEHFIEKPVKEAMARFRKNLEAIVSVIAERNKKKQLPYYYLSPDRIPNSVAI

[2] = molecular target: T2, Prostaglandin E synthase (Homo sapiens) (UniProt O14684); assay: Inhibition of human mPGES-1 assessed as enzyme remaining activity at 10 uM relative to control
T2 sequence (whole entry): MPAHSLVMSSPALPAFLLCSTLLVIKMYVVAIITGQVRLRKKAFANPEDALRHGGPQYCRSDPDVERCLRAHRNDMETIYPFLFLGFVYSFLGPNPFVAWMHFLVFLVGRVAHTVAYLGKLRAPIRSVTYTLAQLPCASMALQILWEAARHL

[3] = molecular target: T3, Polyunsaturated fatty acid 5-lipoxygenase (Homo sapiens, UniProt P09917); assay: Inhibition of human recombinant 5-LOX expressed in Escherichia coli BL21(DE3) using arachidonic acid as substrate preincubated with compound for 15 mins followed by substrate and CaCl2 addition measured after 10 mins by RP-HPLC analysis
T3 sequence (P09917 whole entry): T1 sequence (whole entry)

Macrophage cell line [4] = assay: Effect on lipid mediator formation in human M1-like phenotype MDM cells by measuring 12-HETE formation at 10 uM pre-incubated for 15 mins followed by SACM stimulation and measured after 90 mins by UPLC-MS/MS analysis (reference value: 181 +/- 39 pg/ml); type: functional; details: time 105 min, 1.75 h
Macrophage cell line [5] = assay: Effect on lipid mediator formation in human M1-like phenotype MDM cells by measuring 5-HETE formation at 10 uM pre-incubated for 15 mins followed by SACM stimulation and measured after 90 mins by UPLC-MS/MS analysis relative to control; type: functional; details: time 105 min, 1.75 h
Macrophage cell line [6] = assay: Effect on lipid mediator formation in human M1-like phenotype MDM cells by measuring PGE2 formation at 10 uM pre-incubated for 15 mins followed by SACM stimulation and measured after 90 mins by UPLC-MS/MS analysis relative to control; type: functional; details: time 105 min, 1.75 h
Macrophage cell line [7] = assay: Effect on lipid mediator formation in human M1-like phenotype MDM cells by measuring TXB2 formation at 10 uM pre-incubated for 15 mins followed by SACM stimulation and measured after 90 mins by UPLC-MS/MS analysis relative to control; type: functional; details: time 105 min, 1.75 h
Macrophage cell line [8] = assay: Effect on lipid mediator formation in human M1-like phenotype MDM cells by measuring 15-HETE formation at 10 uM pre-incubated for 15 mins followed by SACM stimulation and measured after 90 mins by UPLC-MS/MS analysis relative to control; type: functional; details: time 105 min, 1.75 h
Macrophage cell line [9] = assay: Effect on lipid mediator formation in human M1-like phenotype MDM cells by measuring arachidonic acid formation at 10 uM pre-incubated for 15 mins followed by SACM stimulation and measured after 90 mins by UPLC-MS/MS analysis relative to control; type: functional; details: time 105 min, 1.75 h
Macrophage cell line [10] = assay: Effect on lipid mediator formation in human M2-like phenotype MDM cells by measuring 5-HEPE formation at 10 uM pre-incubated for 15 mins followed by SACM stimulation and measured after 90 mins by UPLC-MS/MS analysis (reference value: 299 +/- 20 pg/ml); type: functional; details: time 105 min, 1.75 h
Macrophage cell line [11] = assay: Effect on lipid mediator formation in human M2-like phenotype MDM cells by measuring t-LTB4 formation at 10 uM pre-incubated for 15 mins followed by SACM stimulation and measured after 90 mins by UPLC-MS/MS analysis (reference value: 426 +/- 49 pg/ml); type: functional; details: time 105 min, 1.75 h
Macrophage cell line [12] = assay: Effect on lipid mediator formation in human M2-like phenotype MDM cells by measuring PGE2 formation at 10 uM pre-incubated for 15 mins followed by SACM stimulation and measured after 90 mins by UPLC-MS/MS analysis (reference value: 159 +/- 24 pg/ml); type: functional; details: time 105 min, 1.75 h
Macrophage cell line [13] = assay: Effect on lipid mediator formation in human M2-like phenotype MDM cells by measuring TXB2 formation at 10 uM pre-incubated for 15 mins followed by SACM stimulation and measured after 90 mins by UPLC-MS/MS analysis (reference value: 4488 +/- 452 pg/ml); type: functional; details: time 105 min, 1.75 h
Macrophage cell line [14] = assay: Effect on lipid mediator formation in human M2-like phenotype MDM cells by measuring RvD1 formation at 10 uM pre-incubated for 15 mins followed by SACM stimulation and measured after 90 mins by UPLC-MS/MS analysis (reference value: 5 +/- 2 pg/ml); type: functional; details: time 105 min, 1.75 h
Macrophage cell line [15] = assay: Effect on lipid mediator formation in human M2-like phenotype MDM cells by measuring arachidonic acid formation at 10 uM pre-incubated for 15 mins followed by SACM stimulation and measured after 90 mins by UPLC-MS/MS analysis (reference value: 92007 +/- 4892 pg/ml); type: functional; details: time 105 min, 1.75 h
Macrophage cell line [16] = assay: Effect on lipid mediator formation in human M2-like phenotype MDM cells by measuring DHA formation at 10 uM pre-incubated for 15 mins followed by SACM stimulation and measured after 90 mins by UPLC-MS/MS analysis (reference value: 50400 +/- 3051 pg/ml); type: functional; details: time 105 min, 1.75 h
Macrophage cell line [17] = assay: Effect on lipid mediator formation in human M2-like phenotype MDM cells by measuring 12-HETE formation at 10 uM pre-incubated for 15 mins followed by SACM stimulation and measured after 90 mins by UPLC-MS/MS analysis relative to control; type: functional; details: time 105 min, 1.75 h
Macrophage cell line [18] = assay: Effect on lipid mediator formation in human M2-like phenotype MDM cells by measuring RvD5 formation at 10 uM pre-incubated for 15 mins followed by SACM stimulation and measured after 90 mins by UPLC-MS/MS analysis relative to control; type: functional; details: time 105 min, 1.75 h
Macrophage cell line [19] = assay: Effect on lipid mediator formation in human M2-like phenotype MDM cells by measuring MaR1 formation at 10 uM pre-incubated for 15 mins followed by SACM stimulation and measured after 90 mins by UPLC-MS/MS analysis relative to control; type: functional; details: time 105 min, 1.75 h

| Activity [1] [%] | Activity [2] [%] | IC50 [3] [µM] | SMILES | Activity (Macrophage cell line [4]) [pg/mL] | Activity (Macrophage cell line [5]) [%] | Activity (Macrophage cell line [6]) [%] | Activity (Macrophage cell line [7]) [%] | Activity (Macrophage cell line [8]) [%] | Activity (Macrophage cell line [9]) [%] | Activity (Macrophage cell line [10]) [pg/mL] | Activity (Macrophage cell line [11]) [pg/mL] | Activity (Macrophage cell line [12]) [pg/mL] | Activity (Macrophage cell line [13]) [pg/mL] | Activity (Macrophage cell line [14]) [pg/mL] | Activity (Macrophage cell line [15]) [pg/mL] | Activity (Macrophage cell line [16]) [pg/mL] | Activity (Macrophage cell line [17]) [%] | Activity (Macrophage cell line [18]) [%] | Activity (Macrophage cell line [19]) [%] |
| --- | --- | --- | --- | --- | --- | --- | --- | --- | --- | --- | --- | --- | --- | --- | --- | --- | --- | --- | --- |
| 96.5 | 80.3 | > 10 | Oc1ccc(CCC2CCC(c3ccc(O)cc3)CO2)cc1 (stereo not drawn) | 158 | 13 | 69 | 94 | 85 | 108 | 102 | 84 | 234 | 3850 | 4 | 103809 | 53713 | 122 | 105 | 106 |
| 84.5 | 89.3 | > 10 | COc1ccc(C2=C/C(=C/c3ccc(O)cc3O)C(=O)O2)cc1 | 157 | 7 | 93 | 94 | 90 | 116 | 55 | 48 | 412 | 3416 | 6 | 94519 | 53610 | 114 | 167 | 189 |
